Assay results taken from ChEMBL document CHEMBL1122547, “Diastereomeric 6-desoxy-6-spiro-alpha-methylene-gamma-butyrolactone derivatives of naltrexone and oxymorphone. Selective irreversible inhibition of naltrexone binding in an opioid receptor preparation by a conformationally restricted michael acceptor ligand” (J Med Chem, 1984).
Where “and” joins values, the source holds several entries; their conditions need not be identical. Equal entries are not always repeated.

Legend:
[1] = Ratio of IC50(presence of NaCl) to that of IC50(absence of NaCl)
Mus musculus [2] = species on record: Mus musculus; experiment: Compound was tested for irreversible inhibition of [3H]- Naltrexone binding with 10 nM naloxone+ 5 nM protection in the presence of NaCl (unwashed); format: functional; design: scale not given: the % may be the effect or the level left
Mus musculus [3] = species on record: Mus musculus; experiment: Compound was tested for irreversible inhibition of [3H]- Naltrexone binding with 10 nM naloxone+ 5 nM protection in the presence of NaCl (washed); format: functional; design: scale not given: the % may be the effect or the level left
Mus musculus [4] = species on record: Mus musculus; experiment: Compound was tested for irreversible inhibition of [3H]- Naltrexone binding with 10 nM naloxone+5 nM protection in the presence of NaCl (washed); format: functional; design: scale not given: the % may be the effect or the level left

C=C1CC2(CCC3(O)[C@H]4Cc5ccc(O)c6c5[C@@]3(CCN4CC3CC3)C2O6)OC1=O (stereo in doubt; 4a)
Ratio [1]: 0.8

C=C1CC2(CCC3(O)[C@H]4Cc5ccc(O)c6c5[C@@]3(CCN4C)C2O6)OC1=O (stereo in doubt; 5b)
Ratio [1]: 7.1

C=C1CC2(CCC3(O)[C@H]4Cc5ccc(O)c6c5[C@@]3(CCN4CC3CC3)C2O6)OC1=O (stereo in doubt; 5a) [listing 1 of 2 here]
Ratio [1]: 0.4

C=C1CC2(CCC3(O)[C@H]4Cc5ccc(O)c6c5[C@@]3(CCN4C)C2O6)OC1=O (stereo in doubt; 4b)
Ratio [1]: 7.6

C=C1CC2(CCC3(O)[C@H]4Cc5ccc(O)c6c5[C@@]3(CCN4CC3CC3)C2O6)OC1=O (stereo in doubt; 5a) [listing 2 of 2 here]
Control (Mus musculus [2]): 28% and 13% | Control (Mus musculus [3]): 93% | Control (Mus musculus [4]): 80%
